# Measurements as given in article PMC539285, “Anti-Plasmodium activity of ceramide analogs” (Malaria Journal, 2004).
# Where two headings read alike, the source gives them in different places.
# Key:
# [1] = tested on: chloroquine-resistant strain FcB1 of P. falciparum; assay: Anti-Plasmodium activity, [3H]hypoxanthine microdilution on asynchronous cultures; type: cell-based, Plasmodium falciparum; details: for IC90 / IC50: Plasmodium falciparum; for IC90: 48 h, 90% growth inhibition, read-out: CI90 (the source's name)
# Method: P. falciparum strains (FcB1/Colombia, K1/Thailand, F32/Tanzania, W2/Indochina) were maintained in continuous culture on human erythrocytes in RPMI medium containing 7% (v/v) heat-inactivated human serum under an atmosphere of 3% CO2, 6% O2, 91% N2, at 37°C, as described by Trager and Jensen. Parasite synchronization was performed successively by treatment with 5% (w/v) sorbitol and by concentration in gelatin solution as previously described.
# Drug susceptibility assays were performed using a modification of the semi automated microdilution technique of Desjardins et al.. Stock solutions of test compounds were prepared in DMSO. Drug solutions were serially diluted twofold with 100 μl culture medium in 96-well plates. Asynchronous parasite cultures (100 μl, 1 % parasitemia and 1 % final hematocrite) were added to each well and incubated for 24 hours at 37°C prior to the addition of 0.5 μCi of [^3H] hypoxanthine (Amersham, France, 1 to 5 Ci.mmol/ml) per well. After a further incubation of 24 hour, plates were frozen and thawed. Cell lysates were then collected onto glass-filter papers and counted in a liquid scintillation spectrometer. The growth inhibition for each drug concentration was determined by comparison of the radioactivity incorporated in the treated culture with that in the control culture (having the same final % of DMSO) maintained on the same plate. The concentration causing 50% growth inhibition (IC50) and 90% growth (IC90) were obtained from the drug concentration-response curve and the results were expressed as the means ± the standard deviations determined from several independent experiments.
# [2] = tested on: P. falciparum synchronized cultures; assay: Parasite stage-specific inhibitory effects and reversibility (Giemsa-stained smears); type: cell-based, Plasmodium falciparum; details: trophozoite stage, 250 nM (data not shown)
# Method: Synchronized cultures (1–2% parasitemia) at the ring stage (0–10 hours old parasites), the trophozoite stage (25–35 hours old parasites) and the schizonte stage (40–48 hours old parasites) were maintained in the presence of drug concentrations in the vicinity of IC50 values. Aliquots were removed at the indicated times, washed three times with culture medium and maintained in culture in the absence or in the presence of a given drug. […] Parasitaemias were determined by counting 3,000 cells for each sample. Controls consisted of parasites incubated with DMSO instead of drugs processed in the same way.
# To investigate the cytostatic or cytotoxic effects of AD2646 on the parasite development, cultures at the ring stage (0–10 hours), the trophozoite stage (25–35 hours) and the schizonte stage (40–48 hours) were incubated with 30, 100 or 250 nM of AD2646 for 24.5 hours for the ring stage, for 11 hours for the trophozoite stage, and for 14 hours for the schizonte stage. Aliquots were then taken, washed and incubated in the absence or the presence of drug for a further 13 hours to 24 hours depending upon the parasite stage tested (see Figure 5). Parasitaemia and parasite stages were determined on Giemsa-stained smears at time of aliquot removal and after the subsequent incubation.
# human MRC-5 cells = assay: Cytotoxicity test upon human embryonic cells (MTT); type: cell-based; details: for IC50: Homo sapiens, MRC5, 120 h, MRC-5, five days, MTT, mean of three experiments; for Index of selectivity: ratio of the IC50 value on MRC-5 cells to that on P. falciparum
# Method: (§1) A human diploid embryonic lung cell line (MRC-5, Bio-Whittaker 72211D) was used to assess the cytotoxic effects towards eukaryotic host cells. MRC-5 cells were seeded at 5,000 cells per well in 100 μl. After 24 hours, the cells were washed and two-fold dilutions of the drug were added in 200 μl standard culture medium (RPMI medium + 5% fetal calf serum) and maintained for five days under 5% CO2 atmosphere. The final DMSO concentration in the culture remained below 0.1%. Untreated cultures were included as controls. The cytotoxicity was determined using the colorimetric MTT assay according to the manufacturer's recommendations (Cell proliferation kit I, Roche Applied Science, France) and scored as a percentage of reduction in absorption at 540 nm of treated cultures versus untreated control cultures. […] The results were expressed as the mean ± the standard deviations determined from several independent experiments. The index of selectivity was defined as the ratio of the IC50 value on MRC-5 to that of P. falciparum.
# [3] = Cytotoxicity test upon human embryonic cells (MTT); type: cell-based; details: human, MRC-5 human diploid embryonic lung cells; MRC-5, five days, MTT; mean of three experiments
# Method: as §1
# [4] = Figure 3, series B, strain FcB1
# [5] = Figure 3, series B (methylene or thiourea linkage), strain FcB1, read-out: CI50 (the source's name)
# [6] = Figure 2, series A (amide linkage), strain FcB1, read-out: CI50 (the source's name)
# [7] = Figure 2, series A (amide linkage), strain FcB1
# [8] = FCB1, Figure 4, selected derivatives, read-out: IC50
"IC50 [1, 5]","IC50 [1, 6]",SMILES,"IC90 [1, 4]","IC90 [1, 7]",also measured
> 50 µM,,CCNC(=S)N[C@H](CO)[C@H](O)c1ccc([N+](=O)[O-])cc1 [AD-2215],,,
,> 100 µM,O=C(CCCO)N[C@H](CO)[C@H](O)c1ccc([N+](=O)[O-])cc1 [AD2589],,,
,26.8 µM,CCCC(=O)N[C@H](CO)[C@H](O)c1ccc([N+](=O)[O-])cc1 [AD2583],,67.4 µM,
1.13 ± 0.24 µM,,CCCCNC(=S)N[C@H](CO)[C@H](O)c1ccc([N+](=O)[O-])cc1 [AD-2216],13.9 ± 7.1 µM,,
0.574 ± 0.05 µM,,CC(C)(C)NC(=S)N[C@H](CO)[C@H](O)c1ccc([N+](=O)[O-])cc1 [AD-2217],0.958 ± 0.013 µM,,
> 33 µM,,CCN[C@H](CO)[C@H](O)c1ccc([N+](=O)[O-])cc1 [AD-2212],,,
,> 100 µM,CCCC(=O)N[C@@H](CO)[C@@H](O)c1ccc([N+](=O)[O-])cc1 [AD2549],,,
,64.1 µM,CCCCCCCC(=O)N[C@@H](CO)[C@@H](O)c1ccc([N+](=O)[O-])cc1 [AD2550],,> 100 µM,
,> 100 µM,CC(=O)N[C@H](CO)[C@H](O)c1ccc([N+](=O)[O-])cc1 [AD2590],,,
,17.2 ± 5.5 µM,CCCCCCCCCCCCCC(=O)N[C@H](CO)[C@H](O)c1ccc([N+](=O)[O-])cc1 [AD2557],,37.8 ± 15.3 µM,
,16.5 ± 6.5 µM,CCCCCCCCCCCC(=O)N[C@H](CO)[C@H](O)c1ccc([N+](=O)[O-])cc1 [AD2552],,36.3 ± 16.1 µM,
,13.1 µM,CCCCCCCC(=O)N[C@H](CO)[C@H](O)c1ccc([N+](=O)[O-])cc1 [AD2494],,70 µM,
0.78 ± 0.07 µM,,CCCCN[C@H](CO)[C@H](O)c1ccc([N+](=O)[O-])cc1 [AD-2493],5.1 ± 0.15 µM,,

# More lines, now with the values behind:
SMILES,"IC50 [1, 5]","IC50 [1, 6]","IC90 [1, 4]","IC90 [1, 7]",also measured
CCCCCCCCCCCCN[C@H](CO)[C@H](O)c1ccc([N+](=O)[O-])cc1 [AD-2617],0.0171 ± 0.0053 µM,,0.304 ± 0.007 µM,,
CCCCCCCCCCCCCCCCCCCCN[C@H](CO)[C@H](O)c1ccc([N+](=O)[O-])cc1 [AD-2554],> 200 µM,,,,
CCCCCCCCCCCCCCN[C@H](CO)[C@H](O)c1ccc(NC(=O)CCCCC)cc1 [AD-2680],3.3 µM,,5.5 µM,,
CCCC(=O)N[C@H](CO)[C@H](O)c1ccc(NC(=O)CCC(=O)O)cc1 [AD2606],,> 100 µM,,,
CCCCCCCCCCCCCCN[C@H](CO)[C@H](O)c1ccc(NC(C)=O)cc1 [AD-2678],5.8 µM,,10.6 µM,,
CCCCCCCCCCCCCCCC(=O)Nc1ccc([C@@H](O)[C@@H](CO)NC(=O)CCC)cc1 [AD2605],,> 100 µM,,,
CCCCNc1ccc([C@@H](O)[C@@H](CO)NCCCC)cc1 [AD-2664],1.3 ± 0.2 µM,,2.4 ± 0.7 µM,,
CCCC(=O)Nc1ccc([C@@H](O)[C@@H](CO)NC(=O)CCC)cc1 [AD2607],,> 100 µM,,,
CCCCCCNc1ccc([C@@H](O)[C@@H](CO)NCCCCCC)cc1 [AD2651],0.0857 ± 0.0232 µM,,0.135 ± 0.019 µM,,"parasite development, trophozoite stage [2]: complete inhibition of parasite development"
CCCCCCCCCCCCNc1ccc([C@@H](O)[C@@H](CO)NCCCCCCCCCCCC)cc1 [AD-2653],3.25 µM,,5.5 µM,,
CCCCCCCCCCCCCCCCCC(=O)N[C@H](CO)[C@H](O)c1ccc([N+](=O)[O-])cc1 [AD2558],,34.3 µM,,> 50 µM,
CCCCCCCCCCCCCCCC(=O)N[C@H](CO)[C@H](O)c1ccc([N+](=O)[O-])cc1 [AD2495],,10.8 ± 2.3 µM,,20.3 ± 1.4 µM,
"CCN(CC)CCCC(C)Nc1ccnc2cc(Cl)ccc12 (centres unmarked) [chloroquine, reference compound]",,,,,IC50 ([1]; FCB1): 0.115 ± 0.025 µM
CCCCCCCCCCCCCCCCN[C@H](CO)[C@H](O)c1ccc([N+](=O)[O-])cc1 [AD2619],0.0428 ± 0.0085 µM,,0.073 ± 0.005 µM,,IC50 (human MRC-5 cells): 26.7 µM; Index of selectivity (human MRC-5 cells): 624; IC90 at 5 days [3]: 42.3 µM
CCCCCCCCCCCCCCCC(=O)N[C@H](CO)[C@H](O)c1ccc(N)cc1 [AD2623],,40.4 µM,,81.3 µM,
CCCCCCCCCCCCCCNC(CO)Cc1ccccc1 (centres unmarked) [AD2729],,,,,"IC50 (human MRC-5 cells): 5.8 µM; Index of selectivity (human MRC-5 cells): 22; IC90 at 5 days [3]: 9.8 µM; reduction of anti-Plasmodium activity by removal of the carbon 3 hydroxyl group ([1]; AD2729 compared with AD2730): 13.5 times; IC50 [1, 8]: 0.258 ± 0.0107 µM"
CCCCCCCCCCCCCC(=O)N[C@@H](CO)[C@@H](O)c1ccc([N+](=O)[O-])cc1 [AD2560],,18.7 ± 6.5 µM,,36 ± 18.2 µM,
CCCCCCCCCCCCCCN[C@H](C)[C@H](O)c1ccccc1 [AD-2724],,,,,"IC50 [1, 8]: 0.0334 ± 0.0031 µM"
CCCCCCCCCCCCCCN[C@H](CO)[C@H](O)c1ccc(NCC)cc1 [AD-2677],1.48 µM,,2.7 µM,,
CCCCCCCCNc1ccc([C@@H](O)[C@@H](CO)NCCCCCCCC)cc1 [AD2670],0.0337 ± 0.0037 µM,,0.069 ± 0.003 µM,,"parasite development, trophozoite stage [2]: complete inhibition of parasite development"
CCCCCCCCCCCCCCN[C@H](CO)[C@H](O)c1ccc(N)cc1 [AD2672],1.7 ± 0.2 µM,,2.6 ± 0.65 µM,,IC50 (human MRC-5 cells): 3.7 µM; Index of selectivity (human MRC-5 cells): 2; IC90 at 5 days [3]: 5.9 µM
CCCCCCCCCCCC(=O)Nc1ccc([C@@H](O)[C@@H](CO)NC(=O)CCC)cc1 [AD2604],,70 µM,,> 100 µM,
CCCCCCCCCCCCCCN[C@@H](CO)[C@@H](O)c1ccc([N+](=O)[O-])cc1 [AD2645],0.0379 ± 0.0021 µM,,0.104 ± 0.001 µM,,IC50 (human MRC-5 cells): 6.1 µM; Index of selectivity (human MRC-5 cells): 161; IC90 at 5 days [3]: 10.3 µM
CCCCCCCCCCCC(=O)Nc1ccc([C@@H](O)[C@H](N)CO)cc1 [AD2648],,4.9 µM,,9.6 µM,
CCCCCCCC(=O)Nc1ccc([C@@H](O)[C@@H](CO)NC(=O)CCC)cc1 [AD2603],,70.1 µM,,> 100 µM,
CCCCCCCCCCCCCCN[C@H](CO)[C@H](O)c1ccccc1 [AD2730],,,,,"IC50 (human MRC-5 cells): 6.1 µM; Index of selectivity (human MRC-5 cells): 322; IC90 at 5 days [3]: 9.9 µM; IC50 [1, 8]: 0.0189 ± 0.0017 µM"
